According to patent US8741806B2, “Herbicides” (Syngenta Limited, priority 2009, dated 2014):

Assays:
Assay type in all cases: in vivo
Lolium perenne (LOLPE) [1] = assay: Example B post-emergence herbicidal activity, glasshouse pot test; details: 312 h, rate 250 g/ha, evaluated after 13 days, scale 0-100, read-out: Post-emergence activity LOLPE (100=total damage to plant; 0=no damage to plant)
Description: (§1) Seeds of a variety of test species were sown in standard soil in pots. After cultivation for one day (pre-emergence) or after 8 days cultivation (post-emergence) under controlled conditions in a glasshouse (at 24/16° C., day/night; 14 hours light; 65% humidity), the plants were sprayed with an aqueous spray solution derived from the formulation of the technical active ingredient of formula I in acetone/water (50:50) solution containing 0.5% Tween 20 (polyoxyethelyene sorbitan monolaurate, CAS RN 9005-64-5). The test plants were then grown in a glasshouse under controlled conditions in a glasshouse (at 24/16° C., day/night; 14 hours light; 65% humidity) and watered twice daily. After 13 days for pre and post-emergence, the test was evaluated (100=total damage to plant; 0=no damage to plant). Setaria faberi (SETFA), Lolium perenne (LOLPE), Alopecurus myosuroides (ALOMY), Echinochloa crus-galli (ECHCG), and Avena fatua (AVEFA). Post-Emergence Activity

[2] = tested on: Echinochloa crus-galli (ECHCG); assay: as above; details: 312 h, rate 250 g/ha, evaluated after 13 days, scale 0-100, read-out: Post-emergence activity ECHCG (100=total damage to plant; 0=no damage to plant)
Description: as §1

Avena fatua (AVEFA) [3] = assay: as above; details: 312 h, rate 250 g/ha, evaluated after 13 days, scale 0-100, read-out: Post-emergence activity AVEFA (100=total damage to plant; 0=no damage to plant)
Description: as §1

[4] = tested on: Alopecurus myosuroides (ALOMY); assay: as above; details: 312 h, rate 250 g/ha, evaluated after 13 days, scale 0-100, read-out: Post-emergence activity ALOMY (100=total damage to plant; 0=no damage to plant)
Description: as §1

Lolium perenne (LOLPE) [5] = assay: Example B pre-emergence herbicidal activity, glasshouse pot test; details: 312 h, rate 250 g/ha, evaluated after 13 days, scale 0-100, read-out: Pre-emergence activity LOLPE (100=total damage to plant; 0=no damage to plant)
Description: as §1, with “Pre-Emergence” for “Post-Emergence”

[6] = tested on: Echinochloa crus-galli (ECHCG); assay: as above; details: 312 h, rate 250 g/ha, evaluated after 13 days, scale 0-100, read-out: Pre-emergence activity ECHCG (100=total damage to plant; 0=no damage to plant)
Description: as §1, with “Pre-Emergence” for “Post-Emergence”

Avena fatua (AVEFA) [7] = assay: as above; details: 312 h, rate 250 g/ha, evaluated after 13 days, scale 0-100, read-out: Pre-emergence activity AVEFA (100=total damage to plant; 0=no damage to plant)
Description: as §1, with “Pre-Emergence” for “Post-Emergence”

[8] = tested on: Alopecurus myosuroides (ALOMY); assay: as above; details: 312 h, rate 250 g/ha, evaluated after 13 days, scale 0-100, read-out: Pre-emergence activity ALOMY (100=total damage to plant; 0=no damage to plant)
Description: as §1, with “Pre-Emergence” for “Post-Emergence”

CCc1ccc(-c2ccc(Cl)cc2F)cc1C1=C(O)CCCC1=O [Compound T45]
pest or weed control at 250 g/ha (Lolium perenne (LOLPE) [1]): 100% | pest or weed control at 250 g/ha [2]: 100% | pest or weed control at 250 g/ha (Avena fatua (AVEFA) [3]): 90% | pest or weed control at 250 g/ha [4]: 40% | pest or weed control at 250 g/ha (Lolium perenne (LOLPE) [5]): 100% | pest or weed control at 250 g/ha [6]: 100% | pest or weed control at 250 g/ha (Avena fatua (AVEFA) [7]): 20% | pest or weed control at 250 g/ha [8]: 20%

CCc1ccc(-c2cc(Cl)c(Cl)cc2Cl)cc1C1=C(O)CCCC1=O [Compound T46]
pest or weed control at 250 g/ha (Lolium perenne (LOLPE) [1]): 70% | pest or weed control at 250 g/ha [2]: 100% | pest or weed control at 250 g/ha (Avena fatua (AVEFA) [3]): 20% | pest or weed control at 250 g/ha [4]: 0% | pest or weed control at 250 g/ha (Lolium perenne (LOLPE) [5]): 70% | pest or weed control at 250 g/ha [6]: 90% | pest or weed control at 250 g/ha (Avena fatua (AVEFA) [7]): 20% | pest or weed control at 250 g/ha [8]: 0%

CCc1ccc(-c2ccc(Cl)cc2C)cc1C1=C(O)CCCC1=O [Compound T48]
pest or weed control at 250 g/ha (Lolium perenne (LOLPE) [1]): 50% | pest or weed control at 250 g/ha [2]: 100% | pest or weed control at 250 g/ha (Avena fatua (AVEFA) [3]): 10% | pest or weed control at 250 g/ha [4]: 20% | pest or weed control at 250 g/ha (Lolium perenne (LOLPE) [5]): 80% | pest or weed control at 250 g/ha [6]: 90% | pest or weed control at 250 g/ha (Avena fatua (AVEFA) [7]): 20% | pest or weed control at 250 g/ha [8]: 0%

CCc1ccc(-c2ccc(Cl)c(Cl)c2)cc1C1=C(O)CCCC1=O [Compound T49]
pest or weed control at 250 g/ha (Lolium perenne (LOLPE) [1]): 90% | pest or weed control at 250 g/ha [2]: 100% | pest or weed control at 250 g/ha (Avena fatua (AVEFA) [3]): 80% | pest or weed control at 250 g/ha [4]: 50% | pest or weed control at 250 g/ha (Lolium perenne (LOLPE) [5]): 100% | pest or weed control at 250 g/ha [6]: 100% | pest or weed control at 250 g/ha (Avena fatua (AVEFA) [7]): 60% | pest or weed control at 250 g/ha [8]: 20%

CCc1ccc(-c2ccc(Cl)c(OC)c2)cc1C1=C(O)CCCC1=O [Compound T50]
pest or weed control at 250 g/ha (Lolium perenne (LOLPE) [1]): 80% | pest or weed control at 250 g/ha [2]: 100% | pest or weed control at 250 g/ha (Avena fatua (AVEFA) [3]): 80% | pest or weed control at 250 g/ha [4]: 70% | pest or weed control at 250 g/ha (Lolium perenne (LOLPE) [5]): 0% | pest or weed control at 250 g/ha [6]: 90% | pest or weed control at 250 g/ha (Avena fatua (AVEFA) [7]): 40% | pest or weed control at 250 g/ha [8]: 20%

CCc1ccc(-c2c(F)cc(Cl)cc2Cl)cc1C1=C(O)CCCC1=O [Compound T51]
pest or weed control at 250 g/ha (Lolium perenne (LOLPE) [1]): 90% | pest or weed control at 250 g/ha [2]: 90% | pest or weed control at 250 g/ha (Avena fatua (AVEFA) [3]): 50% | pest or weed control at 250 g/ha [4]: 40% | pest or weed control at 250 g/ha (Lolium perenne (LOLPE) [5]): 100% | pest or weed control at 250 g/ha [6]: 80% | pest or weed control at 250 g/ha (Avena fatua (AVEFA) [7]): 40% | pest or weed control at 250 g/ha [8]: 20%

CCc1ccc(-c2ccc(Cl)c(F)c2F)cc1C1=C(O)CCCC1=O [Compound T52]
pest or weed control at 250 g/ha (Lolium perenne (LOLPE) [1]): 100% | pest or weed control at 250 g/ha [2]: 100% | pest or weed control at 250 g/ha (Avena fatua (AVEFA) [3]): 80% | pest or weed control at 250 g/ha [4]: 70% | pest or weed control at 250 g/ha (Lolium perenne (LOLPE) [5]): 90% | pest or weed control at 250 g/ha [6]: 100% | pest or weed control at 250 g/ha (Avena fatua (AVEFA) [7]): 30% | pest or weed control at 250 g/ha [8]: 40%

CCc1ccc(-c2ccc(Cl)c(C(F)(F)F)c2F)cc1C1=C(O)CCCC1=O [Compound T53]
pest or weed control at 250 g/ha (Lolium perenne (LOLPE) [1]): 100% | pest or weed control at 250 g/ha [2]: 100% | pest or weed control at 250 g/ha (Avena fatua (AVEFA) [3]): 80% | pest or weed control at 250 g/ha [4]: 40% | pest or weed control at 250 g/ha (Lolium perenne (LOLPE) [5]): 40% | pest or weed control at 250 g/ha [6]: 40% | pest or weed control at 250 g/ha (Avena fatua (AVEFA) [7]): 0% | pest or weed control at 250 g/ha [8]: 20%

CCc1ccc(-c2ccc(Cl)c(Cl)c2Cl)cc1C1=C(O)CCCC1=O [Compound T54]
pest or weed control at 250 g/ha (Lolium perenne (LOLPE) [1]): 60% | pest or weed control at 250 g/ha [2]: 80% | pest or weed control at 250 g/ha (Avena fatua (AVEFA) [3]): 0% | pest or weed control at 250 g/ha [4]: 20% | pest or weed control at 250 g/ha (Lolium perenne (LOLPE) [5]): 20% | pest or weed control at 250 g/ha [6]: 70% | pest or weed control at 250 g/ha (Avena fatua (AVEFA) [7]): 0% | pest or weed control at 250 g/ha [8]: 0%

CCc1ccc(-c2ccc(Cl)s2)cc1C1=C(O)CCCC1=O [Compound T55]
pest or weed control at 250 g/ha (Lolium perenne (LOLPE) [1]): 60% | pest or weed control at 250 g/ha [2]: 100% | pest or weed control at 250 g/ha (Avena fatua (AVEFA) [3]): 10% | pest or weed control at 250 g/ha [4]: 40% | pest or weed control at 250 g/ha (Lolium perenne (LOLPE) [5]): 20% | pest or weed control at 250 g/ha [6]: 40% | pest or weed control at 250 g/ha (Avena fatua (AVEFA) [7]): 0% | pest or weed control at 250 g/ha [8]: 20%
